“Also recorded” adds a separate entry of the source. Residues, ends and D or L forms follow the SMILES beside them. *: point of attachment. Cbz = O=C(OCc1ccccc1)*; CH2F = FC*
What was measured:
caspase-3 [1] = test: Caspase-3 activation (FLICA) in VP16-treated Jurkat cells; type: cell-based, human; details: VP16 10 μM, 7 hrs; inhibitors 50 μM
caspase-3 [2] = test: In cellula caspase-3 like activity (FAM-DEVD-FMK FLICA or anti-cleaved caspase-3 antibody) in SD-neurons; type: cell-based, mouse; details: 24 hr-SD; inhibitors 100 μM (BA 25 μM)
Jurkat cells = test: VP16-induced cell death of Jurkat cells, cytoprotection assay; type: cell-based, human; details: VP16 10 μM, 7-8 hrs; inhibitors 50 μM
caspase-8 = test: In cellula caspase-8 like activity (FAM-LETD-FMK FLICA) in SD-neurons; type: cell-based, mouse; details: 24 hr-SD; inhibitors 100 μM
[3] = target: T1, human recombinant caspase-2 (Homo sapiens, UniProt P42575); test: In vitro VDVAD-AMC cleavage by recombinant caspase-2; type: biochemical; details: inhibitor 2 μM, 50 μM VDVAD-AMC, caspase-2 125 U, 30 min at 37° C.
T1 construct: purchased BIOMOL
T1 sequence (P42575 170-325 limits assumed): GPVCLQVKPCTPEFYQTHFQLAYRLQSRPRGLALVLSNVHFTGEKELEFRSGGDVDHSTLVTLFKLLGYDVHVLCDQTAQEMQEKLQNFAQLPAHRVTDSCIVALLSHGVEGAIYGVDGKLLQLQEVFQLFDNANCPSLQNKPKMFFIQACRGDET
T1 sequence (P42575 348-452 limits assumed): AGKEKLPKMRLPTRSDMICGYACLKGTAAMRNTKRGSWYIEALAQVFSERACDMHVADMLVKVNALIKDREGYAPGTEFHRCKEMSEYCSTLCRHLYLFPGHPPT
Protocol: Activity of human recombinant caspase-2 (BIOMOL QuantiZyme™ Assay System) was assessed in 100 μl assay buffer (50 mM HEPES, pH 7.4, 100 mM NaCl, 0.1% CHAPS, 10 mM DTT, 1 mM EDTA, 10% glycerol).

caspase-2 = test: Caspase-2 activation (FLICA) in VP16-treated Jurkat cells; type: cell-based, human; details: VP16 10 μM, 7 hrs; inhibitors 50 μM
caspase-9 = test: In cellula caspase-9 like activity (FAM-LEHD-FMK FLICA) in SD-neurons; type: cell-based, mouse; details: 24 hr-SD; inhibitors 100 μM (BA 25 μM)
primary cortical neurons = type: cell-based; details: 24 hr-SD; inhibitors 100 μM (BA 25 μM, furosemide 2 mM, siRNA 3.8 μg)

## COC(=O)CCC(NC(=O)C(CC(C)C)NC(=O)OCc1ccccc1)C(=O)NC(C(=O)NC(CC(=O)OC)C(=O)CF)C(C)O (stereo not drawn) [Z-LETD-FMK, N-benzyloxycarbonyl-Leu-Glu(Ome)-Thr-Asp(OMe)-fluoromethylketone] (Cbz-LE(OMe)TD(OMe)-CH2F; configuration not given here)
caspase-3 [1]
  caspase-3 activation in VP16-treated Jurkat cells: unable to prevent
caspase-3 [2]
  caspase-3 like activity / activation in SD-neurons: failed also to block
Jurkat cells
  terminal nuclear alterations and PMP in VP16-treated Jurkat cells: unable to prevent
  ΔΨm loss in VP16-treated Jurkat cells: not abolished; also recorded: unable to prevent
caspase-8
  caspase-8 like activity in SD-neurons: abolishing
[3]
  inhibition of VDVAD-AMC cleavage by recombinant caspase-2: did not interfere highly; also recorded: not strongly inactivated
caspase-2
  caspase-2 activation in VP16-treated Jurkat cells: do not impair caspase-2 activation; also recorded: unable to prevent
caspase-9
  caspase-9 like activity / activation in SD-neurons: failed also to block
Primary cortical neurons
  survival / protection of SD-neurons against cell death (apoptosis hallmarks overall): failed to protect neurons from SD
